Common to all, as to assay type: functional
Experiment [1] has as its system Mus musculus. Briefly: Percentage glucose normalization relative to the ciglitazone effect at 50 mg/kg, which lower blood glucose levels to that of the lean littermates at the dose 1 mg/kg (in mice).
Experiment [2] relates to Mus musculus. Kind of experiment: Percentage glucose normalization relative to the ciglitazone effect at 50 mg/kg, which lower blood glucose levels to that of the lean littermates at the dose 0.1 mg/kg (in mice).
For experiment [3], the system named is Mus musculus. Briefly: Percentage glucose normalization relative to the ciglitazone effect at 50 mg/kg, which lower blood glucose levels to that of the lean littermates at the dose 0.2 mg/kg (in mice).
The subject of experiment [4] is Mus musculus. Briefly: Percentage glucose normalization relative to the ciglitazone effect at 50 mg/kg, which lower blood glucose levels to that of the lean littermates at the dose 25 mg/kg (in mice).
Experiment [5] deals with Mus musculus. Briefly: Percentage glucose normalization relative to the ciglitazone effect at 50 mg/kg, which lower blood glucose levels to that of the lean littermates at the dose 5 mg/kg (in mice).
Experiment [6] deals with Mus musculus. Briefly: Percentage glucose normalization relative to the ciglitazone effect at 50 mg/kg, which lower blood glucose levels to that of the lean littermates at the dose 0.5 mg/kg (in mice).
For experiment [7], the system named is Mus musculus. Briefly: Percentage glucose normalization relative to the ciglitazone effect at 50 mg/kg, which lower blood glucose levels to that of the lean littermates at the dose 10 mg/kg (in mice).
Experiment [8] deals with Mus musculus. Briefly: Percentage glucose normalization relative to the ciglitazone effect at 50 mg/kg, which lower blood glucose levels to that of the lean littermates at the dose 0.025 mg/kg (in mice).
Experiment [9] relates to Mus musculus. Kind of experiment: Percentage glucose normalization relative to the ciglitazone effect at 50 mg/kg, which lower blood glucose levels to that of the lean littermates at the dose 0.05 mg/kg (in mice).

Molecules are shown by their SMILES.

The results in this text go back to ChEMBL document CHEMBL1125685, “Benzyloxazolidine-2,4-diones as potent hypoglycemic agents” (1991).

In the case of `Cc1oc(C2CCCCC2)nc1CCOc1ccc(CC2OC(=O)NC2=O)cc1` (stereo unspecified), the Glucose normalisation in the experiment with Mus musculus [1] came to 61%.

Consider `Cc1ccc(-c2nc(Cc3cc4cc(CC5OC(=O)NC5=O)ccc4o3)c(C)o2)cc1` (stereo unspecified), for which the values for the Glucose normalisation in the experiment with Mus musculus [2] and in the experiment on Mus musculus [3] were 40% and 100%, respectively.

Turning to `O=C1NC(=O)C(Cc2ccc(Oc3ccc4oc(-c5ccccc5)nc4c3)cc2)O1` (stereo unspecified), in the experiment on Mus musculus [4], the Glucose normalisation worked out at 0%.

Turning to `Cc1oc(-c2ccccc2)nc1CCC(=O)c1ccc(CC2OC(=O)NC2=O)cc1` (stereo unspecified), the Glucose normalisation was 13% in the experiment with Mus musculus [1] and 75% in the experiment with Mus musculus [5].

Turning to `Cc1oc(-c2cc(C(F)(F)F)cc(C(F)(F)F)c2)nc1CCOc1ccc(CC2OC(=O)NC2=O)cc1` (stereo unspecified), the Glucose normalisation in the experiment on Mus musculus [3] was 14%; in the experiment on Mus musculus [6] it was 95%.

For `Cc1oc(C2CCCCC2)nc1Cc1cc2cc(CC3OC(=O)NC3=O)ccc2o1` (stereo unspecified), the results for the Glucose normalisation in the experiment with Mus musculus [2] and in the experiment on Mus musculus [3] were 64% and 91%, respectively.

`Cc1oc(-c2ccco2)nc1CCOc1ccc(CC2OC(=O)NC2=O)cc1` (stereo unspecified): the figures for the Glucose normalisation in the experiment on Mus musculus [1] and with Mus musculus [5] were 14% and 24%, respectively.

Regarding `Cc1oc(-c2ccc3ccccc3c2)nc1CCOc1ccc(CC2OC(=O)NC2=O)cc1` (stereo unspecified), the values for the Glucose normalisation with Mus musculus [3], in the experiment with Mus musculus [6] and in the experiment on Mus musculus [1] were 46%, 100% and 98%, respectively.

Turning to `Cc1oc(-c2ccccc2)nc1CCOc1ccc(C2OC(=O)NC2=O)cc1` (stereo unspecified), the Glucose normalisation in the experiment on Mus musculus [1] came out at 0%.

In the case of `O=C1NC(=O)C(Cc2ccc(OCCc3oc(-c4ccccc4)nc3Cc3ccccc3)cc2)O1` (stereo unspecified), the Glucose normalisation in the experiment on Mus musculus [7] came out at 40%.

As to `Cc1oc(-c2ccccc2)nc1COc1ccc(CC2OC(=O)NC2=O)cc1` (stereo unspecified), the Glucose normalisation with Mus musculus [5] worked out at 60%.

`Cc1sc(-c2ccccc2)nc1Cc1cc2cc(CC3OC(=O)NC3=O)ccc2o1` (stereo unspecified) displayed a Glucose normalisation in the experiment on Mus musculus [6] of 0%.

For the compound `Cc1cccc(-c2nc(Cc3cc4cc(CC5OC(=O)NC5=O)ccc4o3)c(C)o2)c1` (stereo unspecified), the Glucose normalisation in the experiment with Mus musculus [2] is recorded as 90%; in the experiment with Mus musculus [6] it was 100%.

For the compound `Cc1sc(-c2ccc3ccccc3c2)nc1CCOc1ccc(CC2OC(=O)NC2=O)cc1` (stereo unspecified), the Glucose normalisation in the experiment with Mus musculus [6] was determined as 0%.

As to `Cc1oc(-c2ccccc2)nc1CCOc1ccc(CC2OC(=O)NC2=O)cc1` (stereo unspecified), the values for the Glucose normalisation in the experiment on Mus musculus [6] and with Mus musculus [1] were 28% and 100%, respectively.

As to `Cc1oc(-c2ccccc2)nc1Cc1cc2cc(CC3OC(=O)NC3=O)ccc2o1` (stereo unspecified), the Glucose normalisation in the experiment with Mus musculus [8] was 65%; with Mus musculus [9], 77%; with Mus musculus [2], 92%; in the experiment with Mus musculus [3], 100%; in the experiment with Mus musculus [5] it was 100%.

As for `COc1ccc(-c2nc(CCOc3ccc(CC4OC(=O)NC4=O)cc3)c(C)o2)cc1` (stereo unspecified), the Glucose normalisation turned out to be 53% in the experiment on Mus musculus [6] and 80% in the experiment with Mus musculus [1].

Consider `Cc1nc(-c2ccc3ccccc3c2)oc1CCOc1ccc(CC2OC(=O)NC2=O)cc1` (stereo unspecified), for which the Glucose normalisation is 0% in the experiment on Mus musculus [1] and 10% in the experiment on Mus musculus [5].

With `Cc1oc(-c2ccc3ccccc3c2)nc1Cc1cc2cc(CC3OC(=O)NC3=O)ccc2o1` (stereo unspecified), the Glucose normalisation with Mus musculus [2] worked out at 76%; in the experiment on Mus musculus [3] it was 70%; in the experiment on Mus musculus [1] it was 75%.
